Several values for one entry are separate records, joined by “and”; a condition that tells them apart may be missing. Equal entries are not always repeated. Toxic doses and inconclusive results are not listed. Peptide text beside a SMILES is read from it.
Tested on: P388 leukemia ip, CD2F1 mice, survival T/C
Assay: NCI In Vivo Anticancer Drug Screen. Data for tumor model P388 Leukemia (intraperitoneal) in CD2F1 (CDF1) mice
Conditions: endpoint: median survival time, higher = longer survival
Procedure, shortened: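 Mice carrying the transplanted tumor received test compound or vehicle. Survival was recorded in each group, and the value is the treated-group measurement divided by that of the vehicle-treated control group.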

[1] = dose: 50.0 mg/kg/injection, schedule: Q01DX005 (ip), vehicle: saline
[2] = dose: 100.0 mg/kg/injection, schedule: Q01DX005 (ip), vehicle: saline
[3] = dose: 200.0 mg/kg/injection, schedule: Q01DX005 (ip), vehicle: saline
[4] = dose: 100.0 mg/kg/injection, schedule: Q04DX003 (ip), vehicle: saline with Tween-80
[5] = dose: 200.0 mg/kg/injection, schedule: Q04DX003 (ip), vehicle: saline with Tween-80
[6] = dose: 400.0 mg/kg/injection, schedule: Q04DX003 (ip), vehicle: saline with Tween-80
[7] = dose: 50.0 mg/kg/injection, schedule: Q01DX005 (ip), vehicle: saline with Tween-80
[8] = dose: 100.0 mg/kg/injection, schedule: Q01DX005 (ip), vehicle: saline with Tween-80
[9] = dose: 200.0 mg/kg/injection, schedule: Q01DX005 (ip), vehicle: saline with Tween-80
[10] = dose: 50.0 mg/kg/injection, schedule: Q01DX009 (ip), vehicle: saline with Tween-80
[11] = dose: 50.0 mg/kg/injection, schedule: Q01DX009 (ip), vehicle: saline
[12] = dose: 100.0 mg/kg/injection, schedule: Q01DX009 (ip), vehicle: saline

CCCCCCCCC1OCN2CCCCC12 (stereo unspecified)
T/C [1]: 108 % of control
T/C [2]: 102 % of control
T/C [3]: 100 % of control

COc1cc(C(c2cc3c(cc2O)OCO3)N2CCN(C(c3cc(OC)c(OC)c(OC)c3)c3cc4c(cc3O)OCO4)CC2)cc(OC)c1OC (stereo unspecified)
T/C (dose: 60.0 mg/kg/injection, schedule: Q01DX005 (ip), vehicle: saline with Tween-80): 87 % of control
T/C (dose: 120.0 mg/kg/injection, schedule: Q01DX005 (ip), vehicle: saline with Tween-80): 90 % of control
T/C (dose: 240.0 mg/kg/injection, schedule: Q01DX005 (ip), vehicle: saline with Tween-80): 87 % of control

CC(O)C(N)C(=O)NC(Cc1ccc(O)cc1)C(=O)NC(CO)C(=O)NC(CCCCN)C(=O)O (stereo unspecified) (H-TYSK-OH; configuration not given here)
T/C [1]: 99 % of control
T/C [2]: 107 % of control
T/C [3]: 106 % of control

O=C(N/N=C/c1ccccc1[OH2+])c1ccncc1.O=S(=O)([O-])[O-].[Fe+2]
T/C (dose: 100.0 mg/kg/injection, schedule: Q01DX001 (ip), vehicle: Klucel (hydroxypropylcellulose) (HPC)): 94 % of control
T/C (dose: 200.0 mg/kg/injection, schedule: Q01DX001 (ip), vehicle: Klucel (hydroxypropylcellulose) (HPC)): 92 % of control

N#CN=[N+]([O-])c1ccccc1[N+](=O)[O-]
T/C (dose: 6.25 mg/kg/injection, schedule: Q04DX003 (ip), vehicle: Klucel (hydroxypropylcellulose) (HPC)): 110 % of control
T/C (dose: 12.5 mg/kg/injection, schedule: Q04DX003 (ip), vehicle: Klucel (hydroxypropylcellulose) (HPC)): 106 % of control

CC(O)CC1=Nc2c(nc(N)[nH]c2=O)N(C)C1 (stereo unspecified)
T/C [4]: 98 % of control
T/C [5]: 97 % of control
T/C [6]: 113 % of control

CCOC(=O)C1n2c(=O)n(-c3ccc(Cl)cc3)c(=O)n21
T/C (dose: 50.0 mg/kg/injection, schedule: Q01DX005 (ip), vehicle: Klucel (hydroxypropylcellulose) (HPC)): 96 % of control
T/C (dose: 100.0 mg/kg/injection, schedule: Q01DX005 (ip), vehicle: Klucel (hydroxypropylcellulose) (HPC)): 87 % of control
T/C (dose: 200.0 mg/kg/injection, schedule: Q01DX005 (ip), vehicle: Klucel (hydroxypropylcellulose) (HPC)): 92 % of control

CC1=CC[N+](C)(C)C(C(N)=O)C1 (stereo unspecified)
T/C [1]: 108 % of control
T/C [2]: 105 % of control

Nc1nc(N)c2cc(CNc3ccc(C(=O)NC(C(=O)O)C(=O)O)cc3)ccc2n1
T/C (dose: 0.05 mg/kg/injection, schedule: Q01DX009 (ip), vehicle: saline sonified): 168 % of control
T/C (dose: 0.1 mg/kg/injection, schedule: Q01DX009 (ip), vehicle: saline sonified): 204 % of control
T/C (dose: 0.2 mg/kg/injection, schedule: Q01DX009 (ip), vehicle: saline sonified): 86 % of control
T/C (dose: 100.0 micrograms/kg/injection, schedule: Q01DX009 (ip), vehicle: saline sonified): 159 % of control

OCC1CC2CCCCN2O1 (stereo unspecified)
T/C (dose: 25.0 mg/kg/injection, schedule: Q01DX005 (ip), vehicle: saline): 102 % of control
T/C [1]: 101 % of control
T/C [2]: 105 % of control
T/C [3]: 106 % of control

CCOc1ccc2cc(S(=O)(=O)O)ccc2c1N
T/C [4]: 100 % of control
T/C [5]: 90 % of control
T/C [6]: 100 % of control

COc1nc2nc(Cl)cc(C)c2c2ccccc12 (tested in a mixture with another compound)
T/C [7]: 104 % of control
T/C [8]: 104 % of control
T/C [9]: 92 % of control

CC1(C)CC(C)(C)C([Se]C2=C(O)C(=O)C(C)(C)CC2(C)C)=C(O)C1=O
T/C [10]: 100 % of control
T/C (dose: 100.0 mg/kg/injection, schedule: Q01DX009 (ip), vehicle: saline with Tween-80): 101 % of control
T/C (dose: 200.0 mg/kg/injection, schedule: Q01DX009 (ip), vehicle: saline with Tween-80): 94 % of control

COC(=O)C[C@H]1[C@]2(C)C[C@@]34OC5(C)O[C@]6([C@@H]7CC(=O)OC(c8ccoc8)[C@]7(C)[C@@H](OC(C)=O)C[C@]6(O5)[C@@]13C)[C@H](OC(=O)C(C)C)[C@]4(O)[C@H]2OC(=O)C(C)C (stereo partly specified)
T/C (dose: 0.37 mg/kg/injection, schedule: Q01DX009 (ip), vehicle: Klucel (hydroxypropylcellulose) (HPC)): 95 % of control
T/C (dose: 0.75 mg/kg/injection, schedule: Q01DX009 (ip), vehicle: Klucel (hydroxypropylcellulose) (HPC)): 94 % of control
T/C (dose: 1.5 mg/kg/injection, schedule: Q01DX009 (ip), vehicle: Klucel (hydroxypropylcellulose) (HPC)): 98 % of control
T/C (dose: 3.0 mg/kg/injection, schedule: Q01DX009 (ip), vehicle: Klucel (hydroxypropylcellulose) (HPC)): 93 % of control

O=C(O)CCC(=O)OCN1C(=O)C2C3C=CC(C2C1=O)C1C2C(=O)N(COC(=O)CCC(=O)O)C(=O)C2C31 (stereo unspecified)
T/C (dose: 25.0 mg/kg/injection, schedule: Q01DX009 (ip), vehicle: water): 103 % of control and 107 % of control (2×)
T/C (dose: 50.0 mg/kg/injection, schedule: Q01DX009 (ip), vehicle: water): 115 % of control and 116 % of control and 122 % of control
T/C (dose: 100.0 mg/kg/injection, schedule: Q01DX009 (ip), vehicle: water): 165 % of control and 178 % of control

CCCNC(=S)N/N=C(/C)c1nccc2ccccc12
T/C (dose: 100.0 mg/kg/injection, schedule: Q04DX003 (ip), vehicle: Klucel (hydroxypropylcellulose) (HPC)): 108 % of control
T/C (dose: 200.0 mg/kg/injection, schedule: Q04DX003 (ip), vehicle: Klucel (hydroxypropylcellulose) (HPC)): 101 % of control
T/C (dose: 400.0 mg/kg/injection, schedule: Q04DX003 (ip), vehicle: Klucel (hydroxypropylcellulose) (HPC)): 99 % of control

CC(C)[N+](C)(C)CC(O)COc1cccc2ccccc12 (stereo unspecified)
T/C [11]: 104 % of control

O=C(O)/C(Cl)=C(\Cl)C(=O)Nc1ccccc1C(F)(F)F
T/C [7]: 97 % of control
T/C [8]: 103 % of control

Cc1ccc(-c2csc3nc(C)c(CN4CCOCC4)c(=O)n23)cc1
T/C (dose: 25.0 mg/kg/injection, schedule: Q04DX002 (ip), vehicle: Klucel (hydroxypropylcellulose) (HPC)): 99 % of control
T/C (dose: 50.0 mg/kg/injection, schedule: Q04DX002 (ip), vehicle: Klucel (hydroxypropylcellulose) (HPC)): 106 % of control
T/C (dose: 100.0 mg/kg/injection, schedule: Q04DX002 (ip), vehicle: Klucel (hydroxypropylcellulose) (HPC)): 101 % of control
T/C (dose: 200.0 mg/kg/injection, schedule: Q04DX002 (ip), vehicle: Klucel (hydroxypropylcellulose) (HPC)): 102 % of control

CN(C)CC[CH2][Sn]([CH3])([c]1ccccc1)[c]1ccccc1
T/C (dose: 6.25 mg/kg/injection, schedule: Q01DX009 (ip), vehicle: suspension in saline): 88 % of control
T/C (dose: 12.5 mg/kg/injection, schedule: Q01DX009 (ip), vehicle: suspension in saline): 101 % of control
T/C (dose: 25.0 mg/kg/injection, schedule: Q01DX009 (ip), vehicle: suspension in saline): 103 % of control

COc1cc([C@@H]2c3cc4c(cc3[C@H](O)[C@H]3COC[C@@H]23)OCO4)cc(OC)c1OC
T/C [7]: 103 % of control
T/C [8]: 108 % of control
T/C [9]: 103 % of control

CCOC(CN)(OCC)c1ccncc1
T/C [1]: 102 % of control
T/C [2]: 101 % of control
T/C [3]: 101 % of control

Clc1cc(Cl)c(C[N+]23CN4CN(CN(C4)C2)C3)cc1Cl
T/C (dose: 6.25 mg/kg/injection, schedule: Q01DX009 (ip), vehicle: saline): 102 % of control
T/C (dose: 12.5 mg/kg/injection, schedule: Q01DX009 (ip), vehicle: saline): 100 % of control and 107 % of control
T/C (dose: 25.0 mg/kg/injection, schedule: Q01DX009 (ip), vehicle: saline): 106 % of control and 109 % of control
T/C [10]: 122 % of control
T/C [11]: 111 % of control and 120 % of control
T/C [12]: 117 % of control

COC(=O)/C(C#N)=C(C)/C=C/c1ccc(OC)cc1
T/C (dose: 100.0 mg/kg/injection, schedule: Q04DX003 (ip), vehicle: saline): 97 % of control
T/C (dose: 200.0 mg/kg/injection, schedule: Q04DX003 (ip), vehicle: saline): 92 % of control
T/C (dose: 400.0 mg/kg/injection, schedule: Q04DX003 (ip), vehicle: saline): 98 % of control

CC(=O)OCC/C(SC(C)=O)=C(/C)N(C=O)Cc1cnc(C)nc1N
T/C [11]: 98 % of control
T/C [12]: 94 % of control
T/C (dose: 200.0 mg/kg/injection, schedule: Q01DX009 (ip), vehicle: saline): 100 % of control
